We go through 10 compounds from US7772425B2, “Vitamin D receptor modulators” (Eli Lilly and Company, priority 2002, dated 2010).

In one data set the test system is rat osteocalcin promoter. The data set can be described thus: OCN (osteocalcin) promoter assay in RG-15 (ROS 17/2.8) cells. The format is cell-based. The settings on record: 48 hr treatment, luciferase. The procedure, abridged:
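Rat osteoblast-like RG-15 (ROS 17/2.8) cells stably carrying a luciferase reporter driven by the osteocalcin promoter, treated with compounds in DMSO (0.01% v/v final) in medium with 2% FBS. After 48 hr at 37 °C, cells were lysed and luciferase activity measured.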

The next data set deals with female DBF mice. The data set can be described thus: Mouse hypercalcemia assay. Particulars: orally via gavage for 6 days; serum ionized calcium 6 hours after last dosing. The format is in vivo. An excerpt:
4. The Mouse Hypercalcemia Assay
(4) Materials and Method for The Mouse Hypercalcemia Assay: […]

Data set [1] deals with KERtr cells (Human skin keratinocyte). The data set can be described thus: Keratinocyte proliferation assay. It is filed as cell-based. Particulars: BrdU incorporation, read-out: Kera. Prolif. IC50. On the procedure:
5. The Keratinocyte Proliferation Assay
This Assay is indicative for the treatment of psoriasis.
(5) The Keratinocyte Proliferation Assay:
KERtr cells (Human skin keratinocyte transformed with a retrovirus vector, obtained from ATCC) were plated in 96-well flat-bottomed plates (3000 cells/well) in 100 μl keratinocyte serum free medium supplemented with bovine pituitary extract in the absence of EGF (Life Technologies, Rockville, Md.) and incubated at 37° C. for two days. The cells were treated with various concentrations of VDR ligands (ten-fold serial dilution from 10,000 nM to 0.1 nM in triplicate), dissolved in 100 μl keratinocyte serum free medium supplemented with bovine pituitary extract in the absence of EGF and incubated at 37° C. for 72 hr. BrdU (5-bromo-2′-deoxyuridine) incorporation was analyzed as a measure of DNA replication (Cell proliferation ELISA kit, Roche Diagnostics, Indianapolis, Ind.) and absorbance was measured at 405 nm. Potency values (IC50) values were determined as the concentration (nM) of compound that elicited a half-maximal response.
(Uptake of a labelled nucleoside into DNA is a usual measure of proliferation.)

The test system of the next data set is IL-10. Briefly: human IL-10 induction assay in PBMCs. It is filed as cell-based. The settings on record: TPA/PHA treated human PBMCs, IL-10 immunoassay of supernatant. An excerpt: The evaluation of the novel compounds of the invention for psoriasis is done using the Keratinocyte Proliferation Assay in combination with other assays that measure inhibition of IL-2 production and stimulation of IL-10 production in peripheral blood mononuclear cells (PBMCs).
6. The IL-10 Induction Assay
This is an in vitro efficacy assay for psoriasis, abscess and adhesion. Psoriasis involves both keratinocytes and immune cells. IL-10 is a unique cytokine because it is anti-inflammatory and immunosuppressive. This assay tells us whether a VDRM is able to function as an agonist in PBMCs (primary blood mononuclear cells) or not. A lower EC50 value is desirable in this assay since a compound with a lower EC50 value will be a better agonist in PBMCs.
(6) Materials and Method for human IL-10 Induction Assay:
Isolation of peripheral blood mononuclear cells (PBMCs):
• A. Collect 50 ml of human blood and dilute with media, RPMI-1640. • B. Prepare sterile tubes with ficol. • C. Add diluted blood to tubes. • D. Centrifuge. • E. Discard the top layer and collect the cells from middle layer. • F. Divide all cells into four tubes and add media. • G. Centrifuge. • H. Aspirate off media and resuspend. • I. Collect all cells • J. Centrifuge. at 1200 rpm for 10 minutes. • K. Resuspend in RPMI-1640 with 2% FBS and count cells Stimulation of PBMC: • L. Prepare TPA in DMSO. • M. Dissolve PHA in water. • N. Plate TPA/PHA treated PBMCs in well plates. • O. Incubate. Treatment: • P. Prepare all compound dilutions in plain RPMI-1640 media. • Q. Add diluted compound. • R. Incubate. Sample Collection and assay: • S. Remove all the cells by centrifugation and assay the supernatant for IL-10 by immunoassay. • 1) T. Perform IL-10 assay using anti-human IL-10 antibody coated beads, as described by the manufacturer (Linco Research Inc., St. Charles, Mo.).

[2] abbreviates: Homo sapiens, Keratinocyte, 72 h.

pEC50, pIC50: −log10 of the molar value. Several values for one entry are separate records, joined by “and”; a condition that tells them apart may be missing. Equal entries are not always repeated. Where two headings read alike, the source gives them in different places. Some results are limits rather than exact numbers.

For `CCC(CC)(c1ccc(OCC(O)C(C)(C)C)c(C)c1)c1ccc(C(=O)Nc2nnn[nH]2)c(C)c1` (single isomer, unassigned) [Ex. 26, 3′-[4-(2-hydroxy-3,3-dimethylbutoxy)-3-methylphenyl]-3′-[4-(tetrazol-5-ylaminocarbonyl)-3-methylphenyl]pentane], in the data set with rat osteocalcin promoter, the pEC50 (as a rule, the EC50 on a negative log10 scale, so that one unit is a factor of ten) was 9.00. Further, the “Mouse Hypercal” value in the data set with female DBF mice is 300 µg/kg/day. Also, the pIC50 (usually the IC50 on a negative log10 scale, so that one unit is a factor of ten) in data set [1] (72 hr) is 8.40; in the data set with IL-10 it was 7.28.
Turning to `CCC(CC)(c1ccc(OC(C)C(O)C(C)(C)C)c(C)c1)c1ccc(C(=O)NCC(=O)O)c(C)c1` (single isomer, unassigned) [Ex. 31, 3′-[4-(2-hydroxy-1,3,3-trimethylbutoxy)-3-methylphenyl]-3′-[4-(carboxymethylaminocarbonyl)-3-methylphenyl]pentane], the negative logarithm of the EC50 (pEC50) with rat osteocalcin promoter was 9.00. In addition, the “Mouse Hypercal” value in the data set with female DBF mice is 3000 µg/kg/day. The negative logarithm of the IC50 (pIC50) in data set [1] (72 hr) was 7.68; with IL-10, 6.53.
In the case of `CCC(CC)(c1ccc(C(=O)O)cc1)c1ccc(OCC(O)C(C)(C)C)c(Cl)c1` (single isomer, unassigned) [Ex. 37, 3′-[3-chloro-4-(2-hydroxy-3,3-dimethylbutoxy)phenyl]-3′-[4-carboxyphenyl]pentane], in the data set with rat osteocalcin promoter, the pEC50 is 7.92. In the data set with female DBF mice, the “Mouse Hypercal” value was 1000 µg/kg/day. For the same compound, the pIC50 in data set [1] (72 hr) is 7.26; in the data set with IL-10 (Homo sapiens, PBMC), 6.64.
Turning to `CCC(CC)(c1ccc(-c2nnn[nH]2)cc1)c1ccc(OCC(O)C(C)(C)C)c(C)c1` (single isomer, unassigned) [Ex. 44, 1-(4-{1-Ethyl-1-[4-(1H-tetrazol-5-yl)-phenyl]-propyl}-2-methyl-phenoxy)-3,3-dimethyl-butan-2-ol], the negative-log EC50 (pEC50) with rat osteocalcin promoter was 10.00. The “Mouse Hypercal” value in the data set with female DBF mice is less than 300 µg/kg/day. For the same compound, the pIC50 in data set [1] (setting [2]) is 7.55; in the data set on IL-10, 8.22.
As for `CCC(CC)(c1ccc(-c2nnn[nH]2)cc1)c1ccc(OCC(O)C(C)(C)C)c(C)c1` (single isomer, unassigned) [Ex. 45, 1-(4-{1-Ethyl-1-[4-(1H-tetrazol-5-yl)-phenyl]-propyl}-2-methyl-phenoxy)-3,3-dimethyl-butan-2-ol], in the data set with rat osteocalcin promoter, the pEC50 was 9.15. Moreover, the “Mouse Hypercal” value in the data set with female DBF mice is 300 µg/kg/day. Further, the negative logarithm of the IC50 (pIC50) in data set [1] (72 hr) was 7.49; in the data set on IL-10, 7.82.
For the compound `CCC(CC)(c1ccc(CC2SC(=O)NC2=O)c(C)c1)c1ccc(OCC(O)C(C)(C)C)c(C)c1` (single isomer, unassigned) [Ex. 50, 5-(4-{1-ethyl-1-[4-(2-hydroxy-3,3-dimethyl-butoxy)-3-methyl-phenyl]-propyl}-2-methyl-benzyl)-thiazolidine-2,4-dione], in the data set on rat osteocalcin promoter, the pEC50 was 9.70. In addition, the “Mouse Hypercal” value in the data set with female DBF mice is 300 µg/kg/day. Besides, the pIC50 is 8.52 in data set [1] (72 hr) and 8.40 in the data set on IL-10.
Turning to `CCC(CC)(c1ccc(CC2SC(=O)NC2=O)c(C)c1)c1ccc(OCC(O)C(C)(C)C)c(C)c1` (single isomer, unassigned) [Ex. 51, 5-(4-{1-ethyl-1-[4-(2-hydroxy-3,3-dimethyl-butoxy)-3-methyl-phenyl]-propyl}-2-methyl-benzyl)-thiazolidine-2,4-dione], the pEC50 with rat osteocalcin promoter was 8.85. Further, the “Mouse Hypercal” value with female DBF mice was 300 µg/kg/day. For the same compound, the pIC50 is 7.59 in data set [1] (72 hr) and 7.72 in the data set on IL-10.
For the compound `CCC(CC)(c1ccc(OC(C)C(O)C(C)(C)C)c(C)c1)c1ccc(C(=O)N(C)CC(=O)O)c(C)c1` (single isomer, unassigned) [Ex. 52, [(4-{1-Ethyl-1-[4-(2-hydroxy-1,3,3-trimethyl-butoxy)-3-methyl-phenyl]-propyl}-2-methyl-benzoyl)-methyl-amino]-acetic acid], in the data set on rat osteocalcin promoter, the pEC50 is 8.40. The “Mouse Hypercal” value in the data set with female DBF mice was more than 3000 µg/kg/day. For the same compound, the negative logarithm of the IC50 (pIC50) is 7.28 in data set [1] (72 hr) and 6.81 in the data set on IL-10 (Homo sapiens, PBMC).
Consider `CCC(CC)(c1ccc(CCC(=O)O)c(C)c1)c1ccc(OCC(=O)C(C)(C)C)c(C)c1` [Ex 6, 3′-[4-(2-oxo-3,3-dimethylbutoxy)-3-methylphenyl]-3′-[4-(2-carboxylethyl)-3-methylphenyl]pentane], for which, in the data set with rat osteocalcin promoter (Rattus norvegicus, 48 h), the pEC50 is 9.52. For the same compound, in the data set with female DBF mice, the “Mouse Hypercal” value is 10 µg/kg/day. Moreover, the pIC50 in data set [1] (setting [2]) was 8.70; in the data set with IL-10 (Homo sapiens, PBMC), 7.26.
For the compound `CCC(CC)(c1ccc(OC(C)C(O)C(C)(C)C)c(C)c1)c1ccc(C(=O)N[C@H](C)C(=O)O)c(C)c1` (stereo partly shown) [Ex. 46, (D)-2-(4-{1-ethyl-1-[4-(2-hydroxy-1,3,3-trimethyl-butoxy)-3-methyl-phenyl]-propyl}-2-methyl-benzoylamino)-propionic acid], the pEC50 with rat osteocalcin promoter is 8.70 and 8.52. Further, the “Mouse Hypercal” value in the data set with female DBF mice is 3000 µg/kg/day. Moreover, the pIC50 was 7.68 in data set [1] (72 hr) and 7.48 with IL-10 (Homo sapiens, PBMC).
